Source: US11110080B2, “Small molecule inhibitors of bacterial efflux pumps and methods of using same” (The Regents of the University of Colorado, a body Corporate, priority 2017, dated 2021)

Key:
[1] = tested on: S.Tm in RAW 264.7 macrophages; experiment: SAFIRE in the presence of a transcriptional (DRB) or translational (cycloheximide) inhibitor; assay type: cell-based, Salmonella enterica serovar Typhimurium; conditions: 100 μM DRB or 1 μM cycloheximide, no EPM
Method: FIG. 13A depicts that RAWs were infected and treated with 25 μM of the indicated compounds using SAFIRE. From 2-18 hours post-infection, cells were treated with DMSO, 100 μM DRB, or 1 μM cycloheximide (CHX). Data for each inhibitor (DRB, CHX) treatment are normalized to cells not treated with EPMs, as differences in basal infection were observed (FIG. 10). Data are mean+SEM of three independent biological replicates, each performed in triplicate. FIG. 13B depicts that RAWs were seeded in 6-well dishes and treated in parallel with FIG. 13A. RNA was extracted at the indicated timepoints, reverse transcribed, and expression of the indicated genes was determined using qPCR. Data shown are mean+SEM of four separate wells from one replicate, and were performed in parallel with one replicate of (A). ****p<0.0001 compared to uninfected by two-way ANOVA with Dunnett's post-test.
Therefore, the question was whether the EPMs require host transcription or translation of AMPs or other factors, for antimicrobial activity. SAFIRE was performed in the presence of a transcriptional (DRB) or translational (cycloheximide) inhibitor (FIG. 13). Since exposure to inhibitors prior to infection greatly diminished macrophage viability, DRB or cycloheximide was added 2 hours post-infection, concurrently with EPMs. […]

[2] = tested on: S.Tm; experiment: Swimming assay in soft agar (proton motive force); assay type: cell-based, Salmonella enterica serovar Typhimurium; conditions: 50× the MIC (6.25 mM)
Method: One way to inhibit efflux pumps is to disrupt the proton motive force, which is required for transport by some EPs. […] Bacteria were injected into the center of 0.25% agar plates, and 10 μl of compound was added to paper disks on the periphery. […] Also ampicillin and rifampicin were tested. We plotted the halo radius versus the concentration as the fold above the MIC (FIG. 9G). […] Next, it was determined whether PAβN inhibited swimming; PAβN is thought to disrupt membranes over long incubations. […] Finally, the EPMs at […] were tested (FIGS. 9D-F).
Saturated overnight cultures were diluted to an OD600 of 0.01 in LB and 1 μL was injected into the center of low agar (0.25%) LB plates. Ten microliters of the indicated compounds were added to sterilized Whatman paper disks (diameter 0.7 cm) placed equidistant from the plate center.

[3] = tested on: bacterial inner membrane potential; experiment: TMRM incorporation (inner membrane potential); assay type: cell-based, Salmonella; conditions: 30 minutes, CCCP 1 mM
Method: (§1) FIGS. 20A and 20B depict Bacteria treated with DMSO or EPMs [100 μM] but not CCCP [1 mM] acquire TMRM staining within 30 minutes. FIG. 20A depicts representative data from one of three independent experiments. FIG. 20B depicts median fluorescence intensity from three experiments normalized to unstained control (0). FIG. 20C depicts disk diffusion assays; the radius of the zone of growth inhibition after 16 hours of exposure to compound across a dose range. Black lines, semilog fit for the combined antibiotic data; gray lines, semilog fit for CCCP and PAβN; dotted line, limit of detection (disk radius). Average of two measurements from each image captured from one experiment representative of two independent experiments. FIGS. 20D and 20E depict nitrocefin access to the periplasm as monitored by nitrocefin [100 μM] hydrolysis in the presence of the indicated concentrations of compounds. FIG. 20D depicts absorbance 486 nm of bla+ Salmonella normalized to bla− Salmonella. […]
To establish whether the three EPMs alter bacterial inner membrane potential, their effect on the incorporation of the voltage-sensitive dye Tetramethylrhodamine methyl ester (TMRM) was observed. […] To establish whether a longer incubation with the EPMs may compromise membrane integrity, the effect of the EPMs on bacterial swimming, an energy intensive activity was monitored over 15 hours (FIGS. 20C, 10). […]

[4] = tested on: bacterial outer membrane; experiment: Nitrocefin access to the periplasm (outer membrane permeability); assay type: cell-based, Salmonella
Method: as §1, with “Salmonella. Data is representative of 3-4 independent biological replicates. FIG. 20E depicts slope of the linear region of the A486 plot from at least three experiments. Data is normalized to A486/minute. *p<0.05, ***p<0.001, ****p<0.0001 by one-way ANOVA with Dunnett's post-test.” for “Salmonella.”

[5] = tested on: Salmonella enterica serovar Typhimurium (S.Tm) within RAW 264.7 murine macrophages; experiment: SAFIRE: fluorescence microscopy assay of S.Tm load within macrophages; assay type: cell-based
Method: A high-content, high-throughput fluorescence microscopy-based screening platform to assay S.Tm load within macrophages was developed (FIG. 1A). RAW 264.7 murine macrophages, a widely used cell line for bacterial infection studies, were infected with bacteria in a standard gentamicin protection assay. The Salmonella expressing GFP driven by the sifB promoter was incubated with the compound beginning at 2 hours post-infection. At 18 hours post-infection, cells were stained with MitoTracker Red CMXRos as a marker of macrophage vitality and processed for fluorescence microscopy. Stained with DAPI. A MATLAB®-based algorithm was developed to quantify infection (FIG. 1B) and compared to statistics to describe infection. Percentage of infected cells was determined by counting the proportion of macrophages within an image with at least 2 GFP+ pixels. Infection area was calculated by normalizing the number of GFP+ pixels within a cell to the cell's total area, then averaging across all cells in an image. To evaluate the approach, 2 μg/ml rifampicin in 96-well and 384-well plates was tested in three independent replicates. The Z′-factor was employed as a measure of assay reproducibility. Numbers close to 1 indicated high reproducibility. For percentage of infected macrophages, the Z′-factor was 0.59 and 0.48 in 96-well and 384-well plates, respectively, compared with 0.66 and 0.38 for infection area. The optimal Z′-factor threshold for high-throughput screening was 0.5; however, values above 0 were considered marginal but feasible. Therefore, the percentage of infected macrophages statistic was used.
The 14,400 compound library Maybridge HitFinder™ v11 was screened, which has been extensively screened against mammalian and microbial targets. The library was screened in duplicate at 25 μM in 384-well plates (FIG. 1C). Data were normalized using the B-score method to remove positional variation. The significance of B-scores was calculated using a modified t-test assuming an inverse gamma distribution of variances. Using a dual threshold of B-score greater than 1 and standard deviation from the mean and p-value less than 0.05, 908 compounds (6.3%) were identified that decreased or increased the percentage of infected macrophages. […] Compounds that altered infection by at least 25% in 96-well plates were considered validated hits.
For high-throughput screening and validation, 7×10^3 macrophages in 40 μL or 3×10^4 macrophages in 100 μL were seeded in 384- or 96-well black-walled, glass-bottomed plates (Brooks Automation). […] Forty-five minutes after bacterial addition, 20 or 50 μL gentamicin was added to a final concentration of 40 μg/mL. […] At 2 hours post-infection, 200 or 500 nL compound was added using a pin tool (CyBio) to yield a final concentration of 25 μM. Each assay plate included rifampicin and DMSO controls. In some experiments, media was removed and replaced with fresh medium containing 40 μg/mL gentamicin and the indicated concentrations of drugs. At 17.5 hours post-infection, PBS containing MitoTracker Red CMXRos (Life Technologies) was added to yield a final concentration of 300 nM (384-well) or 100 nM (96-well). Thirty minutes later, 16% paraformaldehyde was added to a final concentration of 1-2% and incubated at room temperature for 15 minutes. Wells were washed twice with PBS and stained for 20 minutes with 1 μM DAPI; wells were washed twice and stored in 90% glycerol in PBS until imaging.
High magnification images were acquired on an Olympus IX81 inverted widefield microscope. For screening imaging, three-color images were acquired at 10× or 20× on a Cellomics ArrayScan VTI (Thermo) and exported to DIB files. At least two images were taken per well for all experiments. […]

[6] = Freeze-thaw sensitivity of DMSO solution, read out by SAFIRE; assay type: physicochemical; conditions: 25 μM; freeze thawed 20 times vs freshly dissolved
Method: SAFIRE was used to quantify infection of macrophages treated with 25 μM nalidixic acid that was cherry-picked from the plates used to perform the screen (n=2), freshly dissolved in DMSO (n=3), or freshly dissolved and freeze thawed 20 times (n=3). Data are mean+SEM.

**Q.** Which “basal infection of macrophages” value [1] does the source give for `C[C@@H]1C[C@@H]([C@H](O)CC2CC(=O)NC(=O)C2)C(=O)[C@@H](C)C1` [cyclohexamide, cycloheximide] here?
**A.** The value was “decreased basal infection”.

**Q.** For `N#CC(C#N)=NNc1cccc(Cl)c1` [CCCP, reference compound], which “halo in swimming assay” value [2] is on record?
**A.** Its value is “creating a halo”.

**Q.** And the “decrease of TMRM levels versus DMSO” value [3]?
**A.** Its value is “approximately 50 fold”.

**Q.** Which results are given for polymyxin B?
**A.** nitrocefin access to the periplasm ([4]; 1 μg/mL): do not by themselves allow nitrocefin access to the periplasm; nitrocefin access to the periplasm ([4]; 5 μg/mL): high enough to allow nitrocefin access to the periplasm

**Q.** For `OC[C@H]1O[C@@H](n2cnc3cc(Cl)c(Cl)cc32)[C@H](O)[C@@H]1O` [DRB], which “basal infection of macrophages” value [1] is on record?
**A.** Its value is “decreased basal infection”.

**Q.** With `CCn1cc(C(=O)O)c(=O)c2ccc(C)nc21` [Nalidixic acid] as the compound, how does the “B-score, first replicate of the screen” value ([5]; 25 μM) read?
**A.** The value was −4.41.

**Q.** What about the “B-score, second replicate of the screen” value ([5]; 25 μM) of the same compound?
**A.** The value was 0.70.

**Q.** And the “hit status in SAFIRE screen” value ([5]; Maybridge HitFinder v11 library screened at 25 μM)?
**A.** The value was “Nalidixic acid^2”.

**Q.** And the “sensitivity to freeze-thawing when dissolved in DMSO” value [6]?
**A.** The value was “sensitive to freeze-thawing”.
